Assay [1] deals with T1, human PHD2 (Homo sapiens (Human), UniProt Q9GZT9). Description: Test 1: human PHD2 inhibitory activity, [14C]-2-oxoglutarate to [14C]-succinic acid radiometric assay with HIF-1α peptide. The settings on record: test compound's concentration 1 μM; Test 1, [14C]-2-oxoglutarate radiometric assay; read-out: Percent inhibition (% at 1 μM). In kind it is biochemical. On the procedure: (1) Expression and Preparation of Human PHD2
Human PHD2 was expressed in insect cells (HighFive cells). A registered sequence of human PHD2 (NM_022051) was introduced into the pFastBacl vector (Invitrogen), and the sequence was verified. The vector was introduced into Sf9 insect cells (Invitrogen) to acquire human PHD2 baculovirus. HighFive insect cells (Invitrogen) were infected with this recombinant virus and cultured at 27° C. for 72 hours; thereafter, a cell lysis solution containing various protease inhibitors was added and the cells were disrupted to form a suspension. The suspension of disrupted cells was centrifuged at 4° C. and 100,000×g for 30 minutes and the supernatant was recovered as a cell lysate.
(2) Measurement of Human PHD2 Inhibitory Activity
The activity of human PHD2 enzyme was measured with a substrate which is a 19-residue partial peptide based on the sequence of HIF-1α. Specifically, the conversion of 2-oxoglutarate to succinic acid which would occur simultaneously with the hydroxylation of a proline residue in the peptide with the PHD2 enzyme was utilized. To be more specific, [^14C]-2-oxogiutarate was added to the reaction system to initiate an enzymatic reaction and the [^14C]-2-oxoglutarate remaining after the reaction was bound to 2,4-dinitrophenylhydrazine (DNPH), with the resulting precipitate being removed by passage through a filter. Subsequently, radiation counting was conducted on the resulting [^14C]-succinic acid.
A test compound, HIF-1αpeptide and [^14C]-2-oxoglutarate were preliminarily added onto 96-well plates and reaction was initiated by adding a human PHD2 enzyme solution (4 μg/well). After 15-min incubation at 37° C., a DNPH-containing quench solution was added and the mixture was allowed to stand at room temperature for 30 minutes. Thereafter, an excess of non-radiolabelled 2-oxoglutarate was added and the mixture was allowed to stand at room temperature for 60 minutes. The resulting precipitate was removed by passage through a filter and the radiation count on the [^14C]-succinic acid was quantified (with MicroBeta). Radiation counting was conducted for each well and the human PHD2 inhibitory activity of each test compound was calculated on the basis of the values for the substrate-free group and the test compound-free group.

The target in assay [2] is T1, human PHD2. Description: Test 2: human PHD2 inhibitory activity, fluorescence polarization assay of HIF-1α peptide proline hydroxylation. The assay is classed as biochemical. The settings on record: for inhibition at 1 µM: test compound's concentration 1 μM, Test 2, fluorescence polarization assay, read-out: Percent inhibition (% at 1 μM). The method in brief:
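Enzyme from lysate of cells expressing human PHD2 (NM_022051), 40 ng/well, added to compound and 19-residue HIF-1α peptide substrate; 20 min at 30° C., EDTA quench. Prolyl hydroxylation detected by HIF-OH antibody binding via fluorescence polarization; inhibition relative to compound-free wells.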

Drawing on patent US9422240B2, “Partially saturated nitrogen-containing heterocyclic compound” (TAISHO PHARMACEUTICAL CO., LTD, priority 2012, dated 2016), this text covers inhibition and IC50 for 46 compounds.

Structures are written as SMILES.

T1 sequence (Q9GZT9 whole entry): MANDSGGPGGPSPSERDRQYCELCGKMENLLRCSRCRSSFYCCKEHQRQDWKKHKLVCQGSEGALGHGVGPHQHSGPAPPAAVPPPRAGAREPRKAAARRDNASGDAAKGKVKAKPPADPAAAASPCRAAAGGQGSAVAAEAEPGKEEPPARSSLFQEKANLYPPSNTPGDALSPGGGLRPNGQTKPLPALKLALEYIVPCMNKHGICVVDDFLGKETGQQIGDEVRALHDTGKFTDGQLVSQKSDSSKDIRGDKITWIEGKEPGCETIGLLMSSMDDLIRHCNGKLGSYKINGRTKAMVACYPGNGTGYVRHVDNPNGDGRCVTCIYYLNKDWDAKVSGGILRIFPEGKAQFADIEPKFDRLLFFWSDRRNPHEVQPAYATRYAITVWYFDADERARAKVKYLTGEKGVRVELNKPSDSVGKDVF

In general, inhibition refers to how much of the control response was suppressed. Turning to `O=C(O)CNC(=O)C1=C(O)CCN(Cc2ccc(-c3ccccn3)cc2)C1=O` [Ex. 1-35], the figures for the inhibition at 1 µM on human PHD2 [1] and on human PHD2 [2] were 81% and 90%, respectively.

As for `CC(C)(C)c1ccc(-c2ccc(CN3CCC(O)=C(C(=O)NCC(=O)O)C3=O)cc2)cc1` [Ex. 1-36], the figures for the inhibition at 1 µM on human PHD2 [1] and on human PHD2 [2] were 83% and 85%, respectively.

`O=C(O)CNC(=O)C1=C(O)CCN(Cc2ccc(C3CCCCC3)cc2)C1=O` [Ex. 1-37]: the inhibition at 1 µM on human PHD2 [1] came out at 87%; on human PHD2 [2], 89%.

On to `O=C(O)CNC(=O)C1=C(O)CCN(c2ccccc2)C1=O` [Ex. 1-38], for which the figures for the inhibition at 1 µM on human PHD2 [1] and on human PHD2 [2] were 48% and 66%, respectively.

On to `O=C(O)CNC(=O)C1=C(O)CCN(c2cccc(Oc3ccccc3)c2)C1=O` [Ex. 1-39], for which the inhibition at 1 µM at human PHD2 [1] is 76%; at human PHD2 [2], 86%.

Take `O=C(O)CNC(=O)C1=C(O)CCN(c2ccc(Oc3ccccc3)cc2)C1=O` [Ex. 1-40]: the inhibition at 1 µM on human PHD2 [1] amounted to 79%; at human PHD2 [2], 91%.

Turning to `O=C(O)CNC(=O)C1=C(O)CCN(Cc2cnc(-c3ccccc3)nc2)C1=O` [Ex. 1-41], the inhibition at 1 µM on human PHD2 [1] was found to be 89%; on human PHD2 [2], 90%.

Regarding `O=C(O)CNC(=O)C1=C(O)CCN(Cc2ccc(Cc3ccccc3)cc2)C1=O` [Ex. 1-42], the figures for the inhibition at 1 µM at human PHD2 [1] and on human PHD2 [2] were 90% and 94%, respectively.

For the compound `O=C(O)CNC(=O)C1=C(O)CCN(Cc2cnc(C3CCCCC3)nc2)C1=O` [Ex. 1-43], the inhibition at 1 µM turned out to be 74% on human PHD2 [1] and 79% at human PHD2 [2].

For `O=C(O)CNC(=O)C1=C(O)CCN(Cc2cnc(-c3ccccc3)s2)C1=O` [Ex. 1-44], the inhibition at 1 µM stood at 87% at human PHD2 [1] and 91% at human PHD2 [2].

`O=C(O)CNC(=O)C1=C(O)CCN(Cc2cc(-c3ccccc3)no2)C1=O` [Ex. 1-45]: the results for the inhibition at 1 µM at human PHD2 [1] and at human PHD2 [2] were 82% and 88%, respectively.

For the compound `O=C(O)CNC(=O)C1=C(O)CCN(Cc2ccc3c(c2)CCCC3)C1=O` [Ex. 1-46], the inhibition at 1 µM was 78% at human PHD2 [1] and 84% on human PHD2 [2].

As to `COc1ccc(CN2CCC(O)=C(C(=O)NCC(=O)O)C2=O)cc1` [Ex. 1-48], the inhibition at 1 µM on human PHD2 [1] is 67%; on human PHD2 [2] it was 79%.

Consider `O=C(O)CNC(=O)C1=C(O)CC(c2ccccc2)N(Cc2ccccc2)C1=O` (stereo not drawn) [Ex. 1-49], for which the inhibition at 1 µM on human PHD2 [1] and at human PHD2 [2] was 55% throughout.

On to `O=C(O)CNC(=O)C1=C(O)CC(c2ccccc2)N(Cc2ccc(-c3ccccc3)cc2)C1=O` (stereo not drawn) [Ex. 1-50], for which the inhibition at 1 µM on human PHD2 [1] was determined as 77%; at human PHD2 [2] it was 83%.

As for `O=C(O)CNC(=O)C1=C(O)[C@@H]2CCCC[C@@H]2N(Cc2ccc(-c3ccccc3)cc2)C1=O` [Ex. 1-51], the inhibition at 1 µM was found to be 58% on human PHD2 [1] and 73% at human PHD2 [2].

Take `O=C(O)CNC(=O)C1=C(O)[C@@H]2CCCCC2N(Cc2ccc(-c3ccccc3)cc2)C1=O` (stereo partly drawn) [Ex. 1-52]: the inhibition at 1 µM on human PHD2 [1] is 58%; on human PHD2 [2] it was 78%.

As for `CCc1ccc(CN2CCC(O)=C(C(=O)NCC(=O)O)C2=O)cc1` [Ex. 1-53], the inhibition at 1 µM at human PHD2 [1] and at human PHD2 [2] was 78% each time.

Take `O=C(O)CNC(=O)C1=C(O)CCN(Cc2ccc(C(F)(F)F)cc2C(F)(F)F)C1=O` [Ex. 1-54]: the inhibition at 1 µM was determined as 60% on human PHD2 [1] and 71% on human PHD2 [2].

For `CC(C)(C)c1ccc(CN2CCC(O)=C(C(=O)NCC(=O)O)C2=O)cc1` [Ex. 1-55], the inhibition at 1 µM at human PHD2 [1] amounted to 75%; at human PHD2 [2], 79%.

`O=C(O)CNC(=O)C1=C(O)C(c2ccccc2)CN(Cc2ccc(-c3ccccc3)cc2)C1=O` (stereo not drawn) [Ex. 1-57]: the inhibition at 1 µM on human PHD2 [1] worked out at 58%; at human PHD2 [2] it was 83%.

As to `O=C(O)CNC(=O)C1=C(O)CCN(Cc2cc(C(F)(F)F)cc(C(F)(F)F)c2)C1=O` [Ex. 1-59], the inhibition at 1 µM on human PHD2 [1] turned out to be 41%; at human PHD2 [2] it was 54%.

On to `Cc1ccc(CN2CCC(O)=C(C(=O)NCC(=O)O)C2=O)c(C)c1` [Ex. 1-60], for which the figures for the inhibition at 1 µM on human PHD2 [1] and at human PHD2 [2] were 66% and 76%, respectively.

Consider `COc1cccc(CN2CCC(O)=C(C(=O)NCC(=O)O)C2=O)c1` [Ex. 1-61], for which the inhibition at 1 µM was found to be 58% at human PHD2 [1] and 71% at human PHD2 [2].

Take `COc1ccc(CN2CCC(O)=C(C(=O)NCC(=O)O)C2=O)c(C)c1` [Ex. 1-62]: the inhibition at 1 µM on human PHD2 [1] came out at 65%; at human PHD2 [2], 68%.

`O=C(O)CNC(=O)C1=C(O)CC2(CCCCC2)N(Cc2ccc(C(F)(F)F)cc2)C1=O` [Ex. 1-63]: the inhibition at 1 µM was found to be 43% at human PHD2 [1] and 69% at human PHD2 [2].

Regarding `O=C(O)CNC(=O)C1=C(O)C2(CCOCC2)CN(Cc2ccc(C(F)(F)F)cc2)C1=O` [Ex. 1-64], the inhibition at 1 µM is 80% at human PHD2 [1] and 81% on human PHD2 [2].

Take `CSc1ccc(CN2CCC(O)=C(C(=O)NCC(=O)O)C2=O)cc1` [Ex. 1-65]: the inhibition at 1 µM on human PHD2 [1] was 84%; at human PHD2 [2], 85%.

For `O=C(O)CNC(=O)C1=C(O)CCN(Cc2cccc(Cl)c2)C1=O` [Ex. 1-66], the inhibition at 1 µM at human PHD2 [1] was 80%; on human PHD2 [2], 77%.

In the case of `O=C(O)CNC(=O)C1=C(O)CCN(Cc2ccc(Cl)c(Cl)c2)C1=O` [Ex. 1-67], the inhibition at 1 µM on human PHD2 [1] amounted to 84%; on human PHD2 [2], 89%.

On to `O=C(O)CNC(=O)C1=C(O)CCN(Cc2cccc(OC(F)(F)F)c2)C1=O` [Ex. 1-68], for which the inhibition at 1 µM on human PHD2 [1] is 67%; at human PHD2 [2], 66%.

Turning to `CCOc1ccc(CN2CCC(O)=C(C(=O)NCC(=O)O)C2=O)cc1` [Ex. 1-71], the inhibition at 1 µM was 81% on human PHD2 [1] and 85% on human PHD2 [2].

One may read the IC50 as the concentration at which inhibition is half-maximal. A lower IC50 goes with inhibition by little substance. Take `O=C(O)CNC(=O)C1=C(O)CCN(Cc2ccc(Oc3ccccc3)nc2)C1=O` [Ex. 1-72]: the inhibition at 1 µM on human PHD2 [1] worked out at 98%; at human PHD2 [2], 89%. For the same compound, inhibition against human PHD2 [2] (human PHD2, fluorescence polarization assay, 20-min incubation at 30° C.) was half-maximal at 94 nM (IC50).

`O=C(O)CNC(=O)C1=C(O)CCN(Cc2ccc(-c3ccccc3)nc2)C1=O` [Ex. 1-73]: the inhibition at 1 µM on human PHD2 [1] is 99%; at human PHD2 [2], 90%.

For `O=C(O)CNC(=O)C1=C(O)CCN(Cc2ccc(Cl)c(C(F)(F)F)c2)C1=O` [Ex. 1-74], the inhibition at 1 µM was determined as 80% at human PHD2 [1] and 86% at human PHD2 [2].

In the case of `O=C(O)CNC(=O)C1=C(O)CC(Cc2ccccc2)N(Cc2ccc(-c3ccccc3)cc2)C1=O` (stereo not drawn) [Ex. 1-75], the inhibition at 1 µM at human PHD2 [1] came out at 54%; at human PHD2 [2], 84%.

Take `O=C(O)CNC(=O)C1=C(O)CC(CCc2ccccc2)N(Cc2ccc(-c3ccccc3)cc2)C1=O` (stereo not drawn) [Ex. 1-76]: the values for the inhibition at 1 µM at human PHD2 [1] and at human PHD2 [2] were 40% and 79%, respectively.

In the case of `CC1CC(O)=C(C(=O)NCC(=O)O)C(=O)N1Cc1ccc(-c2ccccn2)cc1` (stereo not drawn) [Ex. 1-77], the inhibition at 1 µM is 74% at human PHD2 [1] and 85% on human PHD2 [2].

Turning to `CC1CC(O)=C(C(=O)NCC(=O)O)C(=O)N1Cc1ccc(C(F)(F)F)cc1` (stereo not drawn) [Ex. 1-78], the inhibition at 1 µM at human PHD2 [1] turned out to be 70%; at human PHD2 [2], 78%.

For the compound `Cc1ccc(CN2C(=O)C(C(=O)NCC(=O)O)=C(O)CC2C)cc1` (stereo not drawn) [Ex. 1-79], the inhibition at 1 µM at human PHD2 [1] worked out at 64%; at human PHD2 [2] it was 71%.

For the compound `CC1CC(O)=C(C(=O)NCC(=O)O)C(=O)N1CC1CCC(c2ccccc2)CC1` (stereo not drawn) [Ex. 1-80], the inhibition at 1 µM amounted to 76% at human PHD2 [1] and 88% at human PHD2 [2].

`O=C(O)CNC(=O)C1=C(O)CC(C(F)(F)F)N(Cc2ccc(-c3ccccc3)cc2)C1=O` (stereo not drawn) [Ex. 1-81]: the results for the inhibition at 1 µM at human PHD2 [1] and on human PHD2 [2] were 72% and 64%, respectively.

On to `O=C(O)CNC(=O)C1=C(O)C2(CCCCC2)CN(Cc2ccc(C(F)(F)F)cc2)C1=O` [Ex. 1-82], for which the values for the inhibition at 1 µM at human PHD2 [1] and on human PHD2 [2] were 51% and 77%, respectively.

As to `O=C(O)CNC(=O)C1=C(O)C2(CCC2)CN(Cc2ccc(C(F)(F)F)cc2)C1=O` [Ex. 1-83], the inhibition at 1 µM is 54% at human PHD2 [1] and 73% at human PHD2 [2].

Regarding `Cc1ccc(CN2C(=O)C(C(=O)NCC(=O)O)=C(O)CC23CCCCC3)cc1` [Ex. 1-84], the inhibition at 1 µM at human PHD2 [1] was 42%; on human PHD2 [2], 67%.

With `CC1(C)CC(O)=C(C(=O)NCC(=O)O)C(=O)N1Cc1ccc(C(F)(F)F)cc1` [Ex. 1-85], the inhibition at 1 µM at human PHD2 [1] worked out at 61%; on human PHD2 [2] it was 65%.
